Activity calls are given as the source filed them. No cut-off for these calls is given here.
Experiments:
[1] = Clearance in human hepatocyte at 2 uM measured upto 120 mins by LC-MS/MS analysis; format: ADME, cell-based; conditions: hepatocytes
[2] = Volume of distribution at steady state in mouse plasma at 1 mg/kg,iv; format: ADME, organism-based; conditions: read-out: Vdss
[3] = AUC (0-infinity) in rat plasma at 1 mg/kg,iv; format: ADME, organism-based; set-up: dose 1 mg/kg, route iv
[4] = Clearance in mouse plasma at 1 mg/kg,iv; format: ADME, organism-based
[5] = Clearance in rat hepatocyte at 2 uM measured upto 120 mins by LC-MS/MS analysis; format: ADME, cell-based; conditions: hepatocytes
[6] = AUC (0-infinity) in mouse plasma at 1 mg/kg,iv; format: ADME, organism-based; set-up: dose 1 mg/kg, route iv; conditions: in vivo
[7] = Half life in rat plasma at 1 mg/kg,iv; format: ADME, organism-based
[8] = Clearance in human liver microsomes at 1 uM measured upto 30 mins in presence of NADPH by LC-MS/MS analysis; format: ADME, Microsome
[9] = Volume of distribution at steady state in rat plasma at 1 mg/kg,iv; format: ADME, organism-based; conditions: read-out: Vdss
[10] = test system: Hepatitis B virus; assay: Antiviral activity against HBV stably transfected in human HepG2.2.15 cells assessed as reduction of HBV DNA replication incubated for 5 days by q-PCR analysis; format: functional, organism-based; conditions: HepG2 2.2.15, 120 h
[11] = molecular target: hERG (Homo sapiens, UniProt Q12809); assay: (§1) Inhibition of hERG stably expressed in CHO cells by whole-cell voltage-clamp assay; format: toxicity, cell-based; conditions: human, CHO cells stably expressing hERG
[12] = molecular target: Voltage-gated inwardly rectifying potassium channel KCNH2 (Homo sapiens, UniProt Q12809); assay: as §1; format: toxicity, cell-based
[13] = Ratio of AUC (0 to infinity) in liver to plasma of mouse at 3 mg/kg,po; format: ADME, organism-based; conditions: read-out: Ratio AUC
[14] = AUC (0-infinity) in rat plasma at 3 mg/kg,po; format: ADME, organism-based; set-up: dose 3 mg/kg, route po
[15] = Cytotoxicity against human HepDE19 cells assessed as reduction in cell viability incubated for 5 days by CCK-8 assay; format: functional; conditions: HepDE19, 120 h, time 5 day
[16] = AUC (0-infinity) in mouse plasma at 3 mg/kg,po; format: ADME, organism-based; set-up: dose 3 mg/kg, route po; conditions: in vivo
[17] = AUC (0-infinity) in mouse liver at 3 mg/kg,po; format: ADME, organism-based; set-up: dose 3 mg/kg, route po
[18] = Half life in mouse plasma at 1 mg/kg,iv; format: ADME, organism-based
[19] = Oral bioavailability in rat plasma at 3 mg/kg; format: ADME, organism-based
[20] = Octanol-water partition coefficient, logD of the compound at pH 7.4; format: physicochemical
[21] = Clearance in rat plasma at 1 mg/kg,iv; format: ADME, organism-based
[22] = Oral bioavailability in mouse plasma at 3 mg/kg; format: ADME, organism-based; conditions: in vivo
[23] = Induction of CYP3A4 mRNA expression level in human hepatocytes at 10 uM incubated for 24 hrs by q-PCR analysis; format: ADME, cell-based, Hepatocyte
[24] = test system: Hepatitis B virus; assay: Antiviral activity against AAV-Hepatitis B virus infected in C57BL/6 mouse assessed as reduction of serum HBeAg level at 6 to 20 mg/kg,po qd for 8 weeks by chemiluminescence immunoassay; format: functional, organism-based; conditions: dose 6-20 mg/kg
[25] = test system: Hepatitis B virus; assay: Antiviral activity against AAV-Hepatitis B virus infected in C57BL/6 mouse assessed as reduction of serum HBV DNA level at 6 to 20 mg/kg,po qd for 8 weeks by quantitative real-time PCR analysis; format: functional, organism-based; conditions: dose 6-20 mg/kg
[26] = test system: Hepatitis B virus; assay: Antiviral activity against AAV-Hepatitis B virus infected in C57BL/6 mouse assessed as reduction of serum HBsAg level at 6 to 20 mg/kg,po qd for 8 weeks by chemiluminescence immunoassay; format: functional, organism-based; conditions: dose 6-20 mg/kg
[27] = test system: Hepatitis B virus; assay: Antiviral activity against AAV-Hepatitis B virus infected in C57BL/6 mouse assessed as reduction of serum HBeAg level at 0.03 mg/kg,po qd for 8 weeks by chemiluminescence immunoassay; format: functional, organism-based
[28] = test system: Hepatitis B virus; assay: Antiviral activity against AAV-Hepatitis B virus infected in C57BL/6 mouse assessed as reduction of serum HBV DNA level at 0.03 mg/kg,po qd for 8 weeks by quantitative real-time PCR analysis; format: functional, organism-based
[29] = test system: Hepatitis B virus; assay: Antiviral activity against AAV-Hepatitis B virus infected in C57BL/6 mouse assessed as reduction of serum HBsAg level at 0.03 mg/kg,po qd for 8 weeks by chemiluminescence immunoassay; format: functional, organism-based

Voltage-gated inwardly rectifying potassium channel KCNH2, sequence (Q12809 whole entry): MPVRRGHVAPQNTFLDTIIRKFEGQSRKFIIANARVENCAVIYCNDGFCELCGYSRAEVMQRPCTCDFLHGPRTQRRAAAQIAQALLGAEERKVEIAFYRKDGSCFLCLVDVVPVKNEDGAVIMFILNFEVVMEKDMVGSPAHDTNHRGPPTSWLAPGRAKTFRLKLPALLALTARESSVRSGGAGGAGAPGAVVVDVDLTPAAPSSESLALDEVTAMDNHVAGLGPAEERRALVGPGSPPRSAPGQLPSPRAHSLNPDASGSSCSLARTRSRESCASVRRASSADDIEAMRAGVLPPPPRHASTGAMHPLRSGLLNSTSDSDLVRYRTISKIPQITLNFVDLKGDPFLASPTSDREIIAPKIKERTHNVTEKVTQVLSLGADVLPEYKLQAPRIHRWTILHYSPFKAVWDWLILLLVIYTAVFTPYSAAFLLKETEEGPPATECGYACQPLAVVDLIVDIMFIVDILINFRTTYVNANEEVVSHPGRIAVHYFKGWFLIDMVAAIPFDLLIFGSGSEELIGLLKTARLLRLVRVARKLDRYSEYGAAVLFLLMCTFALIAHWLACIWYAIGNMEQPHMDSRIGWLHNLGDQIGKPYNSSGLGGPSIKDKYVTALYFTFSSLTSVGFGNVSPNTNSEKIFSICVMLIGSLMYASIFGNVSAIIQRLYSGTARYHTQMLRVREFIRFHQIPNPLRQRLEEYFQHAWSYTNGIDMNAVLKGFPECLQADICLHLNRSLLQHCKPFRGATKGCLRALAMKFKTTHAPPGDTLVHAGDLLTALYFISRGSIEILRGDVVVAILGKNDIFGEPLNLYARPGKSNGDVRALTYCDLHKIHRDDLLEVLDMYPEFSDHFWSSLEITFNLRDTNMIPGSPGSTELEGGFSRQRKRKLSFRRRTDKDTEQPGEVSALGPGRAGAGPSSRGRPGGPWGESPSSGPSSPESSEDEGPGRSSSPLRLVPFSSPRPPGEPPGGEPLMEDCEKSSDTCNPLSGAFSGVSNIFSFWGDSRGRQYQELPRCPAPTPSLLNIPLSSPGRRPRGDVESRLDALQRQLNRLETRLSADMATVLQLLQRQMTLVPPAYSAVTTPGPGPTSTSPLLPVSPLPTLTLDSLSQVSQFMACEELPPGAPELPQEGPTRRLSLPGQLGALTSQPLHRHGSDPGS
hERG, sequence (Q12809 whole entry): as above

| Vd [2] | clearance [4] | AUC [6] | half-life [7] | CLhep predicted at 1 µM [8] | Vd [9] | EC50 [10] | Kp [13] | AUC [16] | AUC(0-inf) [17] | half-life [18] | clearance [21] | F [22] | Activity [23] | Compound | IC20 [11] | IC50 [12] | CC50 [15] | also measured |
| --- | --- | --- | --- | --- | --- | --- | --- | --- | --- | --- | --- | --- | --- | --- | --- | --- | --- | --- |
| 1.3 L/kg | 35 mL/min/kg | 471 ng·h/mL | 1.8 h | 0.4 mL/min/kg | 4.8 L/kg | 3 nM | 24 | 154 ng·h/mL | 3760 ng·h/mL | 0.62 h | 65 mL/min/kg | 33% | 1% | CCOC(=O)C1=C(CN2CCN3C(=O)N(CC(C)(C)C(=O)O)C[C@@H]3C2)NC(c2nccs2)=N[C@H]1c1cccc(F)c1Cl | > 10000 nM | > 20000 nM | > 100000 nM | CLhep predicted at 2 µM [1]: 7 mL/min/kg; AUC(0-inf) ([3]; plasma): 257 ng·h/mL; CLhep predicted at 2 µM [5]: 17 mL/min/kg; AUC(0-inf) ([14]; plasma): 26 ng·h/mL; bioavailability ([19]; plasma): 10%; logD [20]: 1.69 |
| 5.2 L/kg | 248 mL/min/kg | 65 ng·h/mL | 1.5 h | 5 mL/min/kg | 5.4 L/kg | 1 nM | 607 | 0.4 ng·h/mL | 279 ng·h/mL | 0.5 h | 87 mL/min/kg | 0.7% | 4% | CCOC(=O)C1=C(CN2C[C@H]3CN(C(C)(C)C)C(=O)N3C[C@@H]2C(=O)O)NC(c2nccs2)=N[C@H]1c1ccc(F)cc1Cl | 2200 nM | 10000 nM | > 100000 nM | AUC ([3]; in vivo): 188 ng·h/mL; AUC ([14]; in vivo): 2.7 ng·h/mL; F ([19]; in vivo, po, 3 mg/kg): 1.4% |
|  |  |  |  |  |  |  |  |  |  |  |  |  |  | C=C1[C@H](CO)[C@@H](O)C[C@@H]1n1cnc2c(=O)[nH]c(N)nc21 |  |  |  | Activity [27]: inactive; Activity [28]: Active; Activity [29]: inactive |

| Compound | Vd [2] | clearance [4] | AUC [6] | half-life [7] | CLhep predicted at 1 µM [8] | Vd [9] | EC50 [10] | Kp [13] | AUC [16] | AUC(0-inf) [17] | half-life [18] | clearance [21] | F [22] | Activity [23] | IC20 [11] | IC50 [12] | CC50 [15] | also measured |
| --- | --- | --- | --- | --- | --- | --- | --- | --- | --- | --- | --- | --- | --- | --- | --- | --- | --- | --- |
| CCOC(=O)C1=C(CN2CCN3C(=O)N(CC(C)(C)C(=O)O)C[C@@H]3C2)N=C(c2nccs2)N[C@H]1c1cccc(F)c1C [LINVENCORVIR] |  |  |  |  |  |  | 6 nM |  |  |  |  |  |  |  |  |  | > 100000 nM | Activity [24]: Dose-Dependent Effect; Activity [25]: Dose-Dependent Effect; Activity [26]: Dose-Dependent Effect |
